{"source": "patent US20170211012A1", "about": "“METHOD OF […] FROM MICROBES” (priority 2014, published 2017)", "system": "Vibrio cholerae", "test": "Colistin MIC against Vibrio cholerae strains", "format": "cell-based", "note": "Several values for one entry are separate records, joined by “and”; a condition that tells them apart may be missing. Identical values can stand only once."}
{"substance": "colistin", "values": [{"measurement": "Colistin MIC", "setting": "V. cholerae strain 32-14, O antigen not given", "value": ">250", "unit": "µg/mL"}, {"measurement": "Colistin MIC", "setting": "V. cholerae strain 33-36, O antigen O-1", "value": ">250", "unit": "µg/mL"}, {"measurement": "Colistin MIC", "setting": "V. cholerae strain 35-44, O antigen O-1", "value": ">250", "unit": "µg/mL"}, {"measurement": "Colistin MIC", "setting": "V. cholerae strain 50-1, O antigen O-1", "value": "4 µg/mL and 8 µg/mL"}, {"measurement": "Colistin MIC", "setting": "V. cholerae strain 51-2, O antigen O-1", "value": 4, "unit": "µg/mL"}, {"measurement": "Colistin MIC", "setting": "V. cholerae strain 52-4, O antigen O-1", "value": 4, "unit": "µg/mL"}, {"measurement": "Colistin MIC", "setting": "V. cholerae strain 57-11, O antigen O-139", "value": 4, "unit": "µg/mL"}, {"measurement": "Colistin MIC", "setting": "V. cholerae strain 58-12, O antigen O-1", "value": 125, "unit": "µg/mL"}, {"measurement": "Colistin MIC", "setting": "V. cholerae strain 79-35, O antigen O-1", "value": ">250", "unit": "µg/mL"}, {"measurement": "Colistin MIC", "setting": "V. cholerae strain 114/98931, O antigen O-1", "value": 125, "unit": "µg/mL"}, {"measurement": "Colistin MIC", "setting": "V. cholerae strain 461/99053, O antigen O-1", "value": ">250", "unit": "µg/mL"}, {"measurement": "Colistin MIC", "setting": "V. cholerae strain 781, O antigen O-1", "value": ">250", "unit": "µg/mL"}, {"measurement": "Colistin MIC", "setting": "V. cholerae strain 1837, O antigen O-139", "value": ">250", "unit": "µg/mL"}, {"measurement": "Colistin MIC", "setting": "V. cholerae strain FMU-089933, O antigen O-139", "value": 31.5, "unit": "µg/mL"}, {"measurement": "Colistin MIC", "setting": "V. cholerae strain M-702-3, O antigen O-1", "value": ">250", "unit": "µg/mL"}, {"measurement": "Colistin MIC", "setting": "V. cholerae strain N16117, O antigen O-1", "value": ">250", "unit": "µg/mL"}, {"measurement": "Colistin MIC", "setting": "V. cholerae strain N16861, O antigen O-1", "value": ">250", "unit": "µg/mL"}, {"measurement": "Colistin MIC", "setting": "V. cholerae strain NG288/36, O antigen O-139", "value": ">250", "unit": "µg/mL"}, {"measurement": "Colistin MIC", "setting": "V. cholerae strain NG368/36, O antigen O-139", "value": ">250", "unit": "µg/mL"}, {"measurement": "Colistin MIC", "setting": "V. cholerae strain NRU-20455, O antigen O-139", "value": 8, "unit": "µg/mL"}, {"measurement": "Colistin MIC", "setting": "V. cholerae strain NRU-20461, O antigen O-139", "value": "8 µg/mL and 4 µg/mL"}, {"measurement": "Colistin MIC", "setting": "V. cholerae strain O-139 Argentina, O antigen O-139", "value": ">250", "unit": "µg/mL"}]}
